What was measured:
[1] = tested on: ischemic neurologic deficit; conditions: cited from earlier work
[2] = tested on: acute focal cerebral ischemia (MCA occlusion); design: species or system cat; conditions: in vivo; for lived up to 7 days / mortality, 24-28 hours / mortality, 48-72 hours / mortality, less than 24 hours: ip
[3] = tested on: neurologic deficits secondary to cerebral ischemia; conditions: man; cited from earlier work
analgesic response = conditions: mice; cited from earlier work

Row | Molecule | survival and neurologic function in several models of stroke ([1]; gerbils (Holaday and D'Amato)) | neurologic function and infarct size after temporary carotid occlusion ([1]; gerbils (Levy et al.)) | neurologic deficits produced by unilateral carotid ligation ([1]; gerbils, intraperitoneal (Hosobuchi et al.)) | effect in prolonging survival [2] | lived up to 7 days [2] [%] | mortality, 24-28 hours [2] [%] | mortality, 48-72 hours [2] [%] | mortality, less than 24 hours [2] [%] | effect on neurologic deficits secondary to cerebral ischemia [3] | analgesic potency (analgesic response)
1 | C=CCN1CC[C@]23c4c5ccc(O)c4O[C@H]2C(=O)CC[C@@]3(O)[C@H]1C5 [Naloxone, 17-allyl-4-5α-epoxy-3,14-dihydroxymorphinan-6-one] | no beneficial effect | did not produce improved neurologic function or alter infarct size | can be reversed | prolonged survival | 31 | 15 | 0 | 54 | can reverse neurologic deficits | 
2 | O=C1CC[C@@]2(O)[C@H]3Cc4ccc(O)c5c4[C@@]2(CCN3CC2CC2)[C@H]1O5 [Naltrexone] |  |  |  | prolonged survival | 40 | 10 | 10 | 40 |  | 
3 | CN1CC[C@]23c4c5ccc(O)c4O[C@H]2[C@@H](O)C=C[C@H]3[C@H]1C5 [morphine] |  |  |  |  |  |  |  |  | exacerbates them | 
4 | Dynorphin |  |  |  |  |  |  |  |  |  | little or no analgesic potency

Reference: patent US4684624A (priority 1985, dated 1987)
